By IC50 is commonly meant the concentration needed to halve the response being measured.

The target in one assay is T1, HCV polymerase (Hepatitis C virus genotype 1b, UniProt Q9WMX2).
T1 construct: (His)6 (C)
As to the kind of experiment: biochemical. To be noted: NS5B polymerase IC50 μM, polymerase assay of Biological Example 1.
`CNC(=O)c1c(-c2ccc(C)cc2)oc2nc(N(CCCCP(C)(=O)O)S(C)(=O)=O)c(C3CC3)cc12` [Example 23.99999, 4-(N-(5-cyclopropyl-3-(methylcarbamoyl)-2-p-tolylfuro[2,3-b]pyridin-6-yl)methylsulfonamido)butyl (methyl)phosphinic acid] had an IC50 of 0.006 µM.

The same assay, now with this note: polymerase assay of Biological Example 1; read-out: NS5B polymerase IC50.
Regarding `CNC(=O)c1c(-c2ccc(F)cc2)oc2nc3c(cc12)CCCCN(S(C)(=O)=O)CCCN3S(C)(=O)=O` [Example 36.5, 2-(4-Fluoro-phenyl)-9,13-bis-methanesulfonyl-6,7,8,9,10,11,12,13-octahydro-5H-1-oxa-9,13,14-triaza-cycloundeca[f]indene-3-carboxylic acid methylamide], the IC50 is 0.474 µM.
As for `CNC(=O)c1c(-c2ccc(F)cc2)oc2nc3c(cc12)[C@H](C)C[C@H](O)CN3S(C)(=O)=O` (single isomer, unassigned) [Example 33], the IC50 was determined as 0.17 µM.
Regarding `CNC(=O)c1c(-c2ccc(C)cc2)oc2nc(N(CCCC3(CC(=O)O)CCOCC3)S(C)(=O)=O)c(C3CC3)cc12` [Example 48, 2-(4-(3-(N-(5-cyclopropyl-3-(methylcarbamoyl)-2-p-tolylfuro[2,3-b]pyridin-6-yl)methylsulfonamido)propyl)tetrahydro-2H-pyran-4-yl)acetic acid], the IC50 was 0.008 µM.
In the case of `CCc1cc2c(C(=O)NC)c(-c3ccc(F)cc3)oc2nc1N(CCOc1ccc(C(=O)OC)cc1)S(C)(=O)=O` [Example 22.7, methyl 4-(2-(N-(5-ethyl-2-(4-fluorophenyl)-3-(methylcarbamoyl)furo[2,3-b]pyridin-6-yl)methylsulfonamido)ethoxy)benzoate], the IC50 was determined as 0.053 µM.
The same measure, in the same setting: in the case of `CCc1cc2c(C(=O)NC)c(-c3ccc(F)cc3)oc2nc1N(CCCCOc1ccccc1C#N)S(C)(=O)=O` [Example 21.96, 6-(N-(4-(2-cyanophenoxy)butyl)methylsulfonamido)-5-ethyl-2-(4-fluorophenyl)-N-methylfuro[2,3-b]pyridine-3-carboxamide] it was 0.072 µM; in that of `CCc1cc2c(C(=O)NC)c(-c3ccc(F)cc3)oc2nc1N(CCCN1CCN(C(=O)OC(C)(C)C)CC1)S(C)(=O)=O` [Example 21.999, tert-butyl 4-(3-(N-(5-ethyl-2-(4-fluorophenyl)-3-(methylcarbamoyl)furo[2,3-b]pyridin-6-yl)methylsulfonamido)propyl)piperazine-1-carboxylate], 0.112 µM; in that of `CNC(=O)c1c(-c2ccc(Cl)cc2)oc2nc(N(CCCS(C)(=O)=O)S(C)(=O)=O)c(I)cc12` [Example 18.991, 2-(4-chlorophenyl)-5-iodo-N-methyl-6-(N-(3-(methylsulfonyl)propyl)methylsulfonamido)furo[2,3-b]pyridine-3-carboxamide], 0.029 µM.
For the molecule `CNC(=O)c1c(-c2ccc(C)cc2)oc2nc(N(CCCC(CC#N)C(=O)OC)S(C)(=O)=O)c(C3CC3)cc12` (stereo not shown) [Example 29.9998, methyl 2-(cyanomethyl)-5-(N-(5-cyclopropyl-3-(metfiylcarbamoyl)-2-p-tolylfuro[2,3-b]pyridin-6-yl)methylsulfonamido) pentanoate], the IC50 was found to be 0.005 µM.
For `CNC(=O)c1c(-c2ccc(F)cc2)oc2nc(N(C)S(C)(=O)=O)c(C(C)(F)F)cc12` [Example 8, 5-(1,1-difluoroethyl)-2-(4-fluorophenyl)-N-methyl-6-(N-methylmethylsulfonamido)furo[2,3-b]pyridine-3-carboxamide], the IC50 stood at 0.125 µM.
For the molecule `CCc1cc2c(C(=O)NC)c(-c3ccc(F)cc3)oc2nc1N(CCN1CCSCC1)S(C)(=O)=O` [Example 22.3, 5-ethyl-2-(4-fluorophenyl)-N-methyl-6-(N-(2-thiomorpholinoethyl)methylsulfonamido)furo[2,3-b]pyridine-3-carboxamide], the IC50 is 0.089 µM.
For the molecule `CCc1cc2c(C(=O)NC)c(-c3ccc(F)cc3)oc2nc1N(CCCCOc1ccccc1OC)S(C)(=O)=O` [Example 22.1, 5-ethyl-2-(4-fluorophenyl)-6-(N-(4-(2-methoxyphenoxy)butyl)methylsulfonamido)-N-methylfuro[2,3-b]pyridine-3-carboxamide], the IC50 amounted to 0.034 µM.
For the molecule `CCOC(=O)CCCCc1cc2c(C(=O)NC)c(-c3ccc(F)cc3)oc2nc1N(C)S(C)(=O)=O` [Example 3, Ethyl 5-(2-(4-fluorophenyl)-3-(methylcarbamoyl)-6-(N-methylmethylsulfonamido)furo[2,3-b]pyridin-5-yl)pentanoate], the IC50 turned out to be 0.034 µM.
Regarding `C=CCCN(c1nc2oc(-c3ccc(C)cc3)c(C(=O)NC)c2cc1C1CC1)S(C)(=O)=O` [Example 29.98, 6-(N-(but-3-enyl)methylsulfonamido)-5-cyclopropyl-N-methyl-2-p-tolylfuro[2,3-b]pyridine-3-carboxamide], the half-inhibitory concentration (IC50) worked out at 0.017 µM.
Consider `CNC(=O)c1c(-c2ccc(F)cc2)oc2nc(N(C)S(C)(=O)=O)c(CC3CO3)cc12` (stereo not shown) [Example 12, 2-(4-fluorophenyl)-N-methyl-6-(N-methylmethylsulfonamido)-5-(oxiran-2-ylmethyl)furo[2,3-b]pyridine-3-carboxamide], for which the IC50 was determined as 0.734 µM.
Take `CCc1cc2c(C(=O)NC)c(-c3ccc(F)cc3)oc2nc1N(CCCC(C)(C)C(=O)O)S(C)(=O)=O` [Example 21.4, 5-(N-(5-ethyl-2-(4-fluorophenyl)-3-(methylcarbamoyl)furo[2,3-b]pyridin-6-yl)methylsulfonamido)-2,2-dimethylpentanoic acid]: the concentration for half-maximal inhibition (IC50) was 0.007 µM.
For `CNC(=O)c1c(-c2ccc(C)cc2)oc2nc(N(CCCO)S(C)(=O)=O)c(C3CC3)cc12` [Example 23.99997, 5-cyclopropyl-6-(N-(3-hydroxypropyl)methylsulfonamido)-N-methyl-2-p-tolylfuro[2,3-b]pyridine-3-carboxamide], the IC50 came to 0.004 µM.
On the same count and under the same terms, in the case of `CNC(=O)c1c(-c2ccc(C)cc2)oc2nc(N(CC3CCC(=O)O3)S(C)(=O)=O)c(C3CC3)cc12` (stereo not shown) [Example 29.994, 5-cyclopropyl-N-methyl-6-(N-((5-oxotetrahydrofuran-2-yl)methyl)methylsulfonamido)-2-p-tolylfuro[2,3-b]pyridine-3-carboxamide] it was 0.006 µM; in that of `CNC(=O)c1c(-c2ccc(F)cc2)oc2nc(N(C)S(C)(=O)=O)c(C)cc12` [Example 2.92, 2-(4-fluorophenyl)-N,5-dimethyl-6-(N-methylmethylsulfonamido)furo[2,3-b]pyridine-3-carboxamide], 0.256 µM.
Same read-out and setting: in the case of `CNC(=O)c1c(-c2ccc(F)cc2)oc2nc3c(cc12)C(C)CCCCCN3S(C)(=O)=O` (stereo not shown) [Example 37, 2-(4-Fluoro-phenyl)-11-methanesulfonyl-5-methyl-6,7,8,9,10,11-hexahydro-5H-1-oxa-11,12-diaza-cyclonona[f]indene-3-carboxylic acid methylamide] it was 0.048 µM; in that of `CNC(=O)c1c(-c2ccc(C)cc2)oc2nc(N(CCCCBr)S(C)(=O)=O)c(C3CC3)cc12` [Example 29.997, 6-(N-(4-bromobutyl)methylsulfonamido)-5-cyclopropyl-N-methyl-2-p-tolylfuro[2,3-b]pyridine-3-carboxamide], 0.002 µM; in that of `CNC(=O)c1c(-c2ccc(F)cc2)oc2nc3c(cc12)C(C)(O)CCCN3S(C)(=O)=O` (stereo not shown) [Example 32, 2-(4-Fluoro-phenyl)-5-hydroxy-9-methanesulfonyl-5-methyl-6,7,8,9-tetrahydro-5H-1-oxa-9,10-diaza-cyclohepta[f]indene-3-carboxylic acid methylamide], 0.651 µM.

The record behind these values is patent US20120015907A1, “Furopyridine compounds and uses thereof” (NOVARTIS AG, priority 2010, published 2012).
